Results taken from US9375426B2, “Method of screening anti-plasmodial activity of acriflavin and acriflavin as an anti-malarial agent” (priority 2012, dated 2016).

Legend:
Plasmodium berghei = tested on: Plasmodium berghei
Description: FIG. 2: In vivo measurement of parasite killing ability of Acriflavin.
This is further described hereinafter as Example 3.
The mice were divided into three groups (each group had 4 mice). For four consecutive days, group I was injected subcutaneously with 5 mg Acriflavin/kg body weight; group II received 5 mg Chloroquine/kg body weight and the group III received no drug and served as control in this experiment. Every alternate day the parasitemia from the tail blood was calculated. […] The mouse groups were kept under observation for 3 weeks after the drug treatment.

[1] = tested on: malaria parasite in vitro; test: Anti-malarial property of Acriflavin vs Proflavin in vitro (parasitemia at end of first life cycle); type: cell-based, Plasmodium falciparum; settings: 100 nM and 250 nM drug concentrations
Description: FIG. 1: Effect of Acriflavin on in vitro growth of 3D7 and W2 strains. Synchronized chloroquine susceptible 3D7 (A) and Chloroquine resistant W2 (B) parasites at ring stage (˜16-20 hrs) were treated with 20 nM to 100 nM of Acriflavin and parasitemia were counted at different time points (post-treatment) as indicated. (C) In each case, parasitemia were determined at the end of the first life cycle and plotted against different concentrations of Acriflavin/Proflavin. Each point/column represents the parasitemia of the mean of triplicates with standard deviations. […] Parasite growth inhibition was assessed by microscopy of giemsa stained smear at different time points as indicated.
Acriflavin is a mixture of 3,6-diamino-10-methylacridinium chloride (Trypflavin) and 3,6-diaminoacridine (Proflavin). […] After the Acriflavin treatment, the parasitemia was calculated in each case. Further, the anti-malarial property of Acriflavin vs Proflavin was also evaluated.
To determine the antimalarial activity of Acriflavin in vitro, synchronised ring stage, Chloroquine sensitive (3D7) and Chloroquine resistant (W2) P. falciparum (˜2.5% parasitemia) parasites were incubated with a range of Acriflavin concentrations (0-100 nM). After 40 hours of the Acriflavin treatment, the parasitemia was calculated in each case. […]

CCN(CC)CCCC(C)Nc1ccnc2cc(Cl)ccc12 (stereo not shown) [Chloroquine]
parasitemia at the end of day 6 (Plasmodium berghei; 5 mg/kg body weight subcutaneously, four consecutive days, tail blood, untreated control 16%): 0.33% | survivability rate (Plasmodium berghei; 5 mg/kg s.c. for four days, 3 weeks observation after treatment, untreated control 25%): 75%

Nc1ccc2cc3ccc(N)cc3nc2c1 [Proflavin, 3,6-diaminoacridine]
anti-malarial property against malaria parasite in vitro [1]: ineffective

mixture of 3,6-diamino-10-methylacridinium chloride (Trypflavin) and 3,6-diaminoacridine (Proflavin) [Acriflavin]
drug-related effects on body weight or general condition of animals (Plasmodium berghei; mouse, in vivo): No drug-related effects
